Patent publication US20230399332A1, “IMIDAZO[1,2-a]PYRAZINE OR PYRAZOLO[1,5-a]PYRIMIDINE DERIVATIVE AND USE THEREOF” (TENCENT TECHNOLOGY (SHENZHEN) COMPANY LIMITED, priority 2022, published 2023)

The molecules below were run against LSD1 (Homo sapiens (Human), UniProt O60341) (assay: LSD1 inhibitory activity on an enzyme level, AlphaScreen method). Conditions: in vitro.
Format: biochemical
Protocol: This experiment was carried out to test the in vitro inhibitory activity of the compounds of the present disclosure against LSD1.
Experimental steps and a method: In this experiment, the in vitro inhibitory activity of the compounds of the present disclosure against LSD1 on an enzyme level was tested by using an AlphaScreen method. The experimental steps are described as follows: • a) preparation of a 1× buffer: • preparing a 1× buffer (improved trihydroxymethylaminomethane buffer); • b) continuous dilution of the compounds: • transferring the compounds of the present disclosure to a porous plate by using Echo at a final DMSO concentration of 1%; • c) preparation of an enzyme solution: • preparing an enzyme solution in the 1× buffer; • d) preparation of a substrate solution: • adding polypeptide to the 1× buffer to prepare a substrate solution; • e) transferring 5 μL of the enzyme solution or the 1× buffer to the porous plate; • f) conducting incubation at room temperature for 15 min; • g) adding 5 μL of the substrate solution to each well to induce a reaction; • h) conducting incubation at room temperature for 40 min; • i) preparing a 1× Alphalisa buffer; • j) preparation of a 1× Alphalisa buffer solution of receptors and donors: • adding 15 μL of a receptor and donor solution in dark light environment, and conducting incubation at room temperature for 60 min; • k) reading an endpoint in an EnSpire Alpha mode; and • l) data processing: • calculating an inhibitory value according to an equation 1:
Inh %=(Max−Signal)/(Max−Min)*100; and equation 1: • calculating an IC50 value by using XL-Fit according to an equation 2:
Y=Bottom+(Top-Bottom)/(1+(IC50/X)[…]), equation 2: • where Y indicates the inhibitory rate, and X indicates the concentration of a compound.

Row | Molecule | IC50
1 | CN1CCOc2cc(-c3c(-c4ccc(C#N)c(F)c4)nc4c(N5CCC[C@@H](N)C5)nccn34)ccc21 [Compound 9, (R)-4-(8-(3-aminopiperidin-1-yl)-3-(4-methyll-3,4-dihydro-2H-benzo [b][1,4]oxazin-7-yl)imidazo[1,2-a]pyrazin-2-yl)-2-fluorobenzonitrile] | 0.88 nM
2 | COc1ccc(-c2c(-c3ccc(C#N)c(F)c3)nc3c(NCC4CCCN4)nccn23)cc1F (centres unmarked) [Compound 6, 2-fluoro-4-(3-(3-fluoro-4-methoxyphenyl)-8-((pyrrolidin-2-ylmethyl)amino)imidazo[1,2-a]pyrazin-2-yl)benzonitrile] | 45 nM
3 | (R)4-(7-(3-aminopiperidin-1-yl)-3-(3-fluoro-4-methoxyphenyl)imidazo [1,5-a]pyrazin-2-yl)-2-fluorobenzonitrile [Compound 4] | 1 nM
4 | COc1ccc(-c2c(-c3ccc(C#N)c(F)c3)nc3c(NC4CCCNC4)nccn23)cc1F (centres unmarked) [Compound 7, 2-fluoro-4-(3-(3-fluoro-4-methoxyphenyl)-8-(piperidin-3-ylamino)imidazo[1,2-a]pyrazin-2-yl)benzonitrile] | 12 nM
5 | Cn1ncc2cc(-c3c(-c4ccc(C#N)c(F)c4)nc4c(N5CCC[C@@H](N)C5)nccn34)ccc21 [Compound 5, (R)-4-(8-(3-aminopiperidin-1-yl)-3-(1-methyll-1H-indazol-5-yl)imidazo [1,2-a]pyrazin-2-yl)-2-fluorobenzonitrile] | 2.3 nM
6 | CC(C)(O)Cn1ncc2cc(-c3c(-c4ccc(C#N)c(F)c4)nc4c(N5CCC[C@@H](N)C5)nccn34)ccc21 [Compound 11, (R)-4-(8-(3-aminopiperidin-1-yl)-3-(1-(2-hydroxy-2-methylpropyl)-1H-indazol-5-yl)imidazo[1,2-a]pyrazin-2-yl)-2-fluorobenzonitrile] | 0.97 nM
7 | COc1ccc(-c2c(-c3ccc(C#N)c(F)c3)nc3c(N[C@@H]4CC[C@H](N)C4)nccn23)cc1F (relative stereo) [Compound 14, cis-4-(8-(((1R,3S)-3-aminocyclopentyl)amino)-3-(3-fluoro-4-methoxyphenyl)imidazo[1,2-a]pyrazin-2-yl)-2-fluorobenzonitrile] | 37 nM
8 | COc1ccc(-c2c(-c3ccc(C#N)c(F)c3)nc3c(N4CCC(N)CC4)nccn23)cc1F [Compound 1, 4-(8-(4-aminopiperidin-1-yl)-3-(3-fluoro-4-methoxyphenyl)imidazo [1,2-a]pyrazin-2-yl)-2-fluorobenzonitrile] | 7.4 nM
9 | COc1ccc(-c2c(-c3ccc(C#N)c(F)c3)nc3c(N4CCC[C@@H](N)C4)nccn23)cc1F [Compound 2, (R)-4-(8-(3-aminopiperidin-1-yl)-3-(3-fluoro-4-methoxyphenyl)imidazo [1,2-a]pyrazin-2-yl)-2-fluorobenzonitrile] | 1.3 nM
10 | COc1ccc(-c2c(-c3ccc(C#N)c(F)c3)nc3c(NCC4CCNC4)nccn23)cc1F (centres unmarked) [Compound 13, 2-fluoro-4-(3-(3-fluoro-4-methoxyphenyl)-8-((pyrrolidin-3-ylmethyl)amino)imidazo[1,2-a]pyrazin-2-yl)benzonitrile] | 56 nM
11 | Cn1ncc2cc(-c3c(-c4ccc(C#N)c(F)c4)nc4c(N5CCC[C@@H](N)C5)nccn34)ccc21 [Compound 8, (R)-4-(8-(3-aminopiperidin-1-yl)-3-(1-methyll-1H-indazol-5-yl)imidazo [1,2-a]pyrazin-2-yl)-2-fluorobenzonitrile] | 1.7 nM
12 | 4-(7-(4-aminopiperidin-1-yl)-3-(3-fluoro-4-methoxyphenyl)imidazo [1,5-a]pyrazin-2-yl)-2-fluorobenzonitrile [Compound 3] | 2.6 nM
13 | N#Cc1ccc(-c2nc3c(N4CCC[C@@H](N)C4)nccn3c2-c2cnn(CC(F)(F)F)c2)cc1F [Compound 10, (R)-4-(8-(3-aminopiperidin-1-yl)-3-(1-(2,2,2-trifluoroethyl)-1H-pyrazol-4-yl)imidazo[1,2-a]pyrazin-2-yl)-2-fluorobenzonitrile] | 7.5 nM

Further lines, results first:

Row | IC50 | Molecule
14 | 6.3 nM | Cn1cc2cc(-c3c(-c4ccc(C#N)c(F)c4)nc4c(N5CCC[C@@H](N)C5)nccn34)ccc2n1 [Compound 17, (R)-4-(8-(3-aminopiperidin-1-yl)-3-(2-methyll-2H-indazol-5-yl)imidazo [1,2-a]pyrazin-2-yl)-2-fluorobenzonitrile]
15 | 0.7 nM | CCC(O)(CC)Cn1nnc2cc(-c3c(-c4ccc(C#N)c(F)c4)nc4c(N5CCC[C@H](N)C5)nccn34)c(F)cc21 [Compound 26, (S)-4-(8-(3-aminopiperidin-1-yl)-3-(1-(2-ethyl-2-hydroxybutyl)-6-fluoro-1H-benzo[d][1,2,3]triazol-5-yl)imidazo[1,2-a]pyrazin-2-yl)-2-fluorobenzonitrile]
16 | 0.71 nM | CC(C)(O)Cn1ncc2cc(-c3c(-c4ccc(C#N)c(F)c4)nc4c(N5CCC[C@@H](N)C5)nccn34)c(F)cc21 [Compound 19, (R)-4-(8-(3-aminopiperidin-1-yl)-3-(6-fluoro-1-(2-hydroxy-2-methylpropyl)-1H-indazol-5-yl)imidazo[1,2-a]pyrazin-2-yl)-2-fluorobenzonitrile]
17 | 4.4 nM | CC(C)(O)Cn1nnc2cc(-c3c(-c4ccc(C#N)c(F)c4)nc4c(N5CCC[C@H](N)C5)nccn34)c(F)cc21 [Compound 23, (S)-4-(8-(3-aminopiperidin-1-yl)-3-(6-fluoro-1-(2-hydroxy-2-methylpropyl)-1H-benzo[d][1,2,3]triazol-5-yl)imidazo[1,2-a]pyrazin-2-yl)-2-fluorobenzonitrile]
18 | 2.5 nM | CC(C)(O)Cc1ccc(-c2c(-c3ccc(C#N)c(F)c3)nc3c(N4CCC[C@@H](N)C4)nccn23)c(F)c1 [Compound 22, (R)-4-(8-(3-aminopiperidin-1-yl)-3-(2-fluoro-4-(2-hydroxy-2-methylpropyl)phenyl)imidazo[1,2-a]pyrazin-2-yl)-2-fluorobenzonitrile]
19 | 15 nM | COc1ccc(-c2c(-c3ccc(C#N)c(F)c3)nc3c(NC4CCNC4)nccn23)cc1F (centres unmarked) [Compound 16, 2-fluoro-4-(3-(3-fluoro-4-methoxyphenyl)-8-(pyrrolidin-3-ylamino)imidazo[1,2-a]pyrazin-2-yl)benzonitrile]
20 | 5.5 nM | CC(C)(O)Cn1nnc2cc(-c3c(-c4ccc(C#N)c(F)c4)nc4c(N5[C@@H]6CC[C@H]5C[C@@H](NC(=O)OC(C)(C)C)C6)nccn34)c(F)cc21 [Compound 28, ((1R,3r,5S)-8-(2-(4-cyano-3-fluorophenyl)-3-(6-fluoro-1-(2-hydroxy-2-methylpropyl)-1H-benzo[d][1,2,3]triazol-5-yl)imidazo[1,2-a]pyrazin-8-yl)-8-azabicyclo[3.2.1]octane-3-yl)carbamate]
21 | 11 nM | COc1ccc(-c2c(-c3ccc(C#N)c(F)c3)nc3c(N[C@@H]4CC[C@@H](N)C4)nccn23)cc1F (relative stereo) [Compound 15, trans-4-(8-(((1R,3R)-3-aminocyclopentyl)amino)-3-(3-fluoro-4-methoxyphenyl)imidazo[1,2-a]pyrazin-2-yl)-2-fluorobenzonitrile]
22 | 1 nM | Cn1nnc2cc(-c3c(-c4ccc(C#N)c(F)c4)nc4c(N5CCC[C@@H](N)C5)nccn34)c(F)cc21 [Compound 30, (R)-4-(8-(3-aminopiperidin-1-yl)-3-(6-fluoro-1-methyl-1H-benzo[d][1,2,3]triazol-5-yl)imidazo[1,2-a]pyrazin-2-yl)-2-fluorobenzonitrile]
23 | 2.3 nM | CC(C)(O)Cn1cc2cc(-c3c(-c4ccc(C#N)c(F)c4)nc4c(N5CCC[C@@H](N)C5)nccn34)c(F)cc2n1 [Compound 21, (R)-4-(8-(3-aminopiperidin-1-yl)-3-(6-fluoro-2-(2-hydroxy-2-methylpropyl)-2H-indazol-5-yl)imidazo[1,2-a]pyrazin-2-yl)-2-fluorobenzonitrile]
